As a reminder, the EC50 is the midpoint of the concentration-response curve.

One assay has as its system SDF-1α induced Ca flux in SUP-T1 cells. In words: Inhibition of SDF-1α induced Ca flux in SUP-T1 cells (FLIPR). The assay is classed as cell-based. The following applies: Homo sapiens, at 20 μM, read-out: inhibited SDF-1α induced Ca flux. How it is done:
Loading dye: Fluo-3, AM (Molecular Probes F-1241) is dissolved in anhydrous DMSO and stored frozen in aliquots. To increase the solubility of the dye in the loading medium, 10% (w/v) pluronic acid (Molecular Probes F-127) is added to the Fluo-3 stock solution immediately before use.
HBSS+20 mM Hepes buffer+0.2% BSA, pH 7.4. HBSS 10× [(w/o phenol red and sodium bicarbonate (Gibco 14 065-049)]; Hepes buffer 1M (Gibco 15 630-056), BSA (Sigma A3675). The flux buffer is vacuum-filtered and stored refrigerated for a maximum of 5 days. Before use in the experiment, the buffer is warmed at 37° C. in a waterbath.
The test compounds were diluted in flux buffer and added to 4 wells of a black microplate (4 parallel measurements per compound).
The chemokines are diluted in flux buffer to concentrations that are 4-fold higher than the desired concentrations required for stimulation of the cells (i.e. 2.5 nM for SDF-1α and 0.6 nM for RANTES). The chemokines were added to untreated 96-well Sero well compound plates (International Medical, Sterilin code 611F96). In the negative control well's (baseline monitoring), flux buffer is added instead of chemokine. As a positive control to check for dye loading efficiency, 20 μM digitonin (final concentration) was also included. The agonist plate was incubated in the FLIPR (37° C.) for 15-30 min.
SUP-T1 cells were centrifuged at room temperature (RT) and re-suspended in loading medium (RPMI-1640 containing 2% FBS and 4 μM Fluo-3, AM). The cells were incubate at room temperature for 45 min. then washed twice in flux buffer then incubated in flux buffer at room temperature for 10 min. The cells were centrifuged and re-suspended in flux buffer at a density of 3×10^6 cells per mL. […] The microplate is then gently centrifuged at room temperature. Homogeneous spreading of the cells on the bottom of the microplate wells was then confirmed with a microscope and the microplate was incubated in the FLIPR (37° C.) for 10 min. prior to testing.
The FLIPR settings (camera exposure time and laser power) are adjusted to obtain initial fluorescence values between 8,000 and 10,000 units. After monitoring a 20 second-baseline, the agonist (chemokine) (50 μL) is added by automatic pipettor with black pipette tips. Fluorescence is measured simultaneously in all wells of the microplate every 2 seconds (first 2 min) and thereafter every 6 seconds (additional 2 min). The average ca-flux measured in each set of 4 identical wells (one test compound) was calculated by the FLIPR software.
The compounds of the current invention were tested for inhibition of SDF-1α induced Ca flux in SUP-T1 cells using the method described above.
For the compound `Cc1onc(-c2ccccc2Cl)c1C(=O)N1CCC(N(Cc2cccc(CNCc3ccccn3)c2)Cc2ccccn2)CC1` [Example 98, N,N′-bis(2-pyridinylmethyl)-N-[1-[3-(2-chlorophenyl)-5-methyl-isoxazol-4-oyl]-4-piperidinyl]-1,3-benzenedimethanamine], the inhibition at 20 µM was greater than 20%.

As for `Cn1c(CN(CCc2ccccn2)Cc2ccc(CNCc3ccccn3)cc2)nc2ccccc21` [Example 183, N-[1-methylbenzimidazol-2-ylmethyl]-N-[2-(2-pyridinyl)ethyl]-N′-(2-pyridinylmethyl)-1,4-benzenedimethanamine], the inhibition at 20 µM was greater than 20%.

With `CC(C)N1CCC(N(Cc2ccc(CNCc3ccccn3)cc2)Cc2ccccn2)CC1` [Example 147, N-[1-(iso-propyl)-4-piperidinyl]-N,N′-bis(2-pyridinylmethyl)-1,4-benzenedimethanamine], the inhibition at 20 µM was greater than 20%.

With `c1ccc(-c2[nH]c3ccccc3c2CN(CCc2ccccn2)Cc2ccc(CNCc3ccccn3)cc2)cc1` [Example 184, N-[(2-phenyl)benzo[b]pyrrol-3-ylmethyl]-N-[2-(2-pyridinyl)ethyl]-N′-(2-pyridinylmethyl)-1,4-benzenedimethanamine], the inhibition at 20 µM was greater than 20%.

For the compound `c1ccc(CN2CCC(N(CCc3ccccn3)Cc3ccc(CNCc4ccccn4)cc3)CC2)cc1` [Example 182, N-[1-(benzyl)-4-piperidinyl]-N-[2-(2-pyridinyl)ethyl]-N′-(2-pyridinylmethyl)-1,4-benzenedimethanamine], the inhibition at 20 µM was greater than 20%.

As to `c1ccc(CN2CCC(N(Cc3ccc(CNCc4ccccn4)cc3)Cc3ccccn3)C2)cc1` (stereo not drawn) [Example 145, N-[1-(benzyl)-3-pyrrolidinyl]-N,N′-bis(2-pyridinylmethyl)-1,4-benzenedimethanamine], the inhibition at 20 µM was greater than 20%.

Consider `O=C(NN1CCC(N(Cc2ccc(CNCc3ccccn3)cc2)Cc2ccccn2)CC1)c1cccnc1` [Example 131, N-[1-(3-pyridinecarboxamido)-4-piperidinyl]-N,N′-bis(2-pyridinylmethyl)-1,4-benzenedimethanamine], for which the inhibition at 20 µM is greater than 20%.

Regarding `Cc1onc(-c2ccccc2Cl)c1C(=O)NN1CCC(N(Cc2ccc(CNCc3ccccn3)cc2)Cc2ccccn2)CC1` [Example 135, N-[1-[3-(2-chlorophenyl)-5-methyl-isoxazol-4-carboxamido]-4-piperidinyl]-N,N′-bis(2-pyridinylmethyl)-1,4-benzenedimethanamine], the inhibition at 20 µM was greater than 20%.

With `Cn1cc(CN(CCc2ccccn2)Cc2cccc(CNCc3ccccn3)c2)c2ccccc21` [Example 180, N-[(1-methyl)benzo[b]pyrrol-3-ylmethyl]-N-[2-(2-pyridinyl)ethyl]-N′-(2-pyridinylmethyl)-1,3-benzenedimethanamine], the inhibition at 20 µM is greater than 20%.

With `CCCCN1CCC(N(CCc2ccccn2)Cc2cccc(CNCc3ccccn3)c2)CC1` [Example 177, N-[1-butyl-4-piperidinyl]-N-[2-(2-pyridinyl)ethyl]-N′-(2-pyridinylmethyl)-1,3-benzenedimethanamine], the inhibition at 20 µM is greater than 20%.

Take `O=C(c1ccccc1)N1CCC(N(CCc2ccccn2)Cc2cccc(CNCc3ccccn3)c2)CC1` [Example 178, N-[1-benzoyl-4-piperidinyl]-N-[2-(2-pyridinyl)ethyl]-N′-(2-pyridinylmethyl)-1,3-benzenedimethanamine]: the inhibition at 20 µM is greater than 20%.

Still in this assay, the particulars now being: Homo sapiens, at 20 μg/mL, read-out: inhibited SDF-1α induced Ca flux.
`O=C(NC1CCCCc2cccnc21)c1ccc(CNCc2ccccn2)cc1` (stereo not drawn) [Example 82, N-(6,7,8,9-tetrahydro-5H-cyclohepta[b]pyridin-9-yl)-4-[[(2-pyridinylmethyl)amino]methyl]benzamide]: the inhibition at 20 µg/mL was greater than 20%.

For the compound `NCCN(Cc1ccc(CNCc2ccccn2)cc1)C1CCCc2cccnc21` (stereo not drawn) [Example 31, N-(2-pyridinylmethyl)-N′-(2-aminoethyl)-N′-(5,6,7,8-tetrahydro-8-quinolinyl)-1,4-benzenedimethanamine], the inhibition at 20 µg/mL is greater than 20%.

Consider `c1ccc(CN(Cc2ccc(CNCc3ccccn3)cc2)C2CCCc3cccnc32)cc1` (stereo not drawn) [Example 60, N-(2-pyridinylmethyl)-N′-(phenylmethyl)-N′-(5,6,7,8-tetrahydro-8-quinolinyl)-1,4-benzenedimethanamine], for which the inhibition at 20 µg/mL was greater than 20%.

Consider `O=C(c1cnccn1)N(Cc1ccc(CNCc2ccccn2)cc1)C1CCCc2cccnc21` (stereo not drawn) [Example 75, N-[[4-[[(2-pyridinylmethyl)amino]methyl]phenyl]methyl]-N-(5,6,7,8-tetrahydro-8-quinolinyl)-pyrazinamide], for which the inhibition at 20 µg/mL is greater than 20%.

Consider `O=C(c1ccccn1)N(Cc1ccc(CNCc2ccccn2)cc1)C1CCCc2cccnc21` (stereo not drawn) [Example 79, N-[[4-[[(2-pyridinylmethyl)amino]methyl]phenyl]methyl]-N-(5,6,7,8-tetrahydro-8-quinolinyl)-picolinamide], for which the inhibition at 20 µg/mL was greater than 20%.

For the compound `NCC(=O)N(Cc1ccc(CNCc2ccccn2)cc1)C1CCCc2cccnc21` (stereo not drawn) [Example 72, N-[[4-[[(2-pyridinylmethyl)amino]methyl]phenyl]methyl]-N-(5,6,7,8-tetrahydro-8-quinolinyl)-glycinamide], the inhibition at 20 µg/mL is greater than 20%.

A further assay has as its system HIV-1 NL4.3 or IIIB. The assay is described as follows: Inhibition of HIV-1 (NL4.3 or IIIB) replication in MT-4 cells (MTT). The assay is classed as cell-based. As to conditions: Human immunodeficiency virus 1, IIIB, MT4, read-out: EC50, inhibition of HIV-1 NL4.3 or IIIB replication. How it is done: Compounds were tested for their ability to inhibit HIV-1 replication in MT-4 cells or PBMC's (peripheral blood mononucleocytes) using published procedures (for example, see: Labrosse et al. J. Virol. 1998, 6381-6388; Simmons et al. J. Virol. 1998, 8453-8457; Donzella et al. Nature Medicine 1998, 72-77; Schols et al. J. Exp. Med. 1997, 1383-1388; De Clercq et al. Antiviral Res. 1997, 147-156; and Bridger et al. U.S. patent application Ser. No. 09/111,895). In addition to the above references, experimental methods for performing anti-viral assays can also be found in: Bridger et al. J. Med. Chem. 1995, 38, 366-378; Bridger et al. J. Med. Chem. 1996, 39, 109-119; Bridger et al. U.S. Pat. No. 5,698,546; Bridger et al. U.S. Pat. No. 5,583,131; Bridger et al. U.S. Pat. No. 5,817,807; De Clercq et al. Antimicrob. Agents and Chemother. 1994, 38, 668-674.
1. The HIV-1 strains NL4.3 and IIIB are T-tropic strains that exclusively use CXCR4 as the co-receptor for entry into cells. MT-4 Cells express CXCR4 but not CCR5.
Inhibition of HIV-1 NL4.3 (or IIIB) replication assays were performed as previously described (Bridger et al. J. Med. Chem. 1999, 42, 3971-3981; De Clercq et al. Proc. Natl. Acad. Sci, 1992, 89, 5286-5290; De Clercq et al. Antimicrob. Agents Chemother. 1994, 38, 668-674; Bridger et al. J. Med. Chem. 1995, 38, 366-378). Anti-HIV activity and cytotoxicity measurements were carried out in parallel. They were based on the viability of MT-4 cells that had been infected with HIV in the presence of various concentrations of the test compounds. After the MT-4 cells were allowed to proliferate for 5 days, the number of viable cells was quantified by a tetrazolium-based calorimetric 3-(4,5-dimethylthiazol-2-yl)-2,5-diphenyltetrazolium bromide (MTT) procedure in 96-well microtrays. In all of these assays, viral input (viral multiplicity of infection, MOI) was 0.01, or 100 times the 50% cell culture infective dose (CCID50). The EC50 was defined as the concentration required to protect 50% of the virus-infected cells against viral cytopathicity.
For the compound `c1ccc(CNCc2ccc(CNC3CCCc4cccnc43)cc2)nc1` (stereo not drawn) [Example 2, N-(2-pyridinylmethyl)-N′-(5,6,7,8-tetrahydro-8-quinolinyl)-1,4-benzenedimethanamine], the half-maximal effective concentration (EC50) is less than 20 µg/mL.

Regarding `c1ccc(CNCc2ccc(CNC3CCc4cccnc43)cc2)nc1` (stereo not drawn) [Example 3, N-(2-pyridinylmethyl)-N′-(6,7-dihydro-5H-cyclopenta[b]pyridin-7-yl)-1,4-benzenedimethanamine], the 50% effective concentration (EC50) was less than 20 µg/mL.

The same assay, now with this note: Human immunodeficiency virus 1, IIIB, MT4, read-out: EC50, inhibition of HIV-1 NLA.3 or IIIB replication.
In the case of `COc1cc(CN(Cc2ccc(CNCc3ccccn3)cc2)C2CCCc3cccnc32)cc2c1OCO2` (stereo not drawn) [Example 140, N-[(3-methoxy-4,5-methylenedioxyphenyl)methyl]-N′-(2-pyridinylmethyl)-N-(5,6,7,8-tetrahydro-8-quinolinyl)-1,4-benzenedimethanamine], the EC50 is less than 20 µM.

For `FC(F)Oc1ccccc1CN(Cc1ccc(CNCc2ccccn2)cc1)C1CCCCc2cccnc21` (stereo not drawn) [Example 126, N-[(2-difluoromethoxyphenyl)methyl]-N′-(2-pyridinylmethyl)-N-(6,7,8,9-tetrahydro-5H-cyclohepta[b]pyridin-9-yl)-1,4-benzenedimethanamine], the EC50 was less than 20 µM.

For the origin of these results see patent US6750348B1, “Chemokine receptor binding heterocyclic compounds” (AnorMED, Inc., priority 1999, dated 2004).
